The values that follow are results of earlier work, collected in patent US20060281913A1, “Process for the production of crystalline xylose from sugar cane bagasse, crystalline xylose obtained by said process, process for the production of xylitol from the said xylose and crystalline xylitol obtained thereby” (priority 2003, published 2006).

Read-outs that look alike come from different tables or passages of the source.

The conditions of series [1]: relative to sucrose.

In the case of `O=C[C@H](O)[C@@H](O)[C@H](O)CO` [crystalline xylose, xylose], the “solubility in methanol, ethanol and isopropanol” value is “sparingly soluble”; the solubility in water entry was “highly soluble”. Besides, the sweetening power in series [1] (data collected from the literature) is listed as ~67 % that of sucrose.
`OC[C@@H](O)[C@H](O)[C@@H](O)CO` [crystalline xylitol, xylitol]: the “solubility in methanol, ethanol and isopropanol” value is listed as “low solubility”; the solubility in water result is recorded as “high solubility”. The sweetening power entry in series [1] (in words) is listed as “equivalent to that of sucrose”.
